Measurements published in PubChem BioAssay AID1645865 (Buhrlage Lab, Dana-Farber Cancer Institute and Novartis …, 2021).
The source made the active and inactive calls.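 How the source made its calls: active means maximal inhibition of the USP30 enzyme reaching 30% or more across the dose series; inactive means the rest.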

biological target: Ubiquitin carboxyl-terminal hydrolase 30 (Homo sapiens) (UniProt Q70CQ3); test: inhibitors of ubiquitin-specific protease 30 deubiquitylating enzyme, concentration dependence, in vitro biochemical, validation of primary hits (AID 1645865); conditions: purified USP30, Ub-rhodamine cleavage, fluorescence, 2 h
Sequence (Q70CQ3 whole entry, looked up): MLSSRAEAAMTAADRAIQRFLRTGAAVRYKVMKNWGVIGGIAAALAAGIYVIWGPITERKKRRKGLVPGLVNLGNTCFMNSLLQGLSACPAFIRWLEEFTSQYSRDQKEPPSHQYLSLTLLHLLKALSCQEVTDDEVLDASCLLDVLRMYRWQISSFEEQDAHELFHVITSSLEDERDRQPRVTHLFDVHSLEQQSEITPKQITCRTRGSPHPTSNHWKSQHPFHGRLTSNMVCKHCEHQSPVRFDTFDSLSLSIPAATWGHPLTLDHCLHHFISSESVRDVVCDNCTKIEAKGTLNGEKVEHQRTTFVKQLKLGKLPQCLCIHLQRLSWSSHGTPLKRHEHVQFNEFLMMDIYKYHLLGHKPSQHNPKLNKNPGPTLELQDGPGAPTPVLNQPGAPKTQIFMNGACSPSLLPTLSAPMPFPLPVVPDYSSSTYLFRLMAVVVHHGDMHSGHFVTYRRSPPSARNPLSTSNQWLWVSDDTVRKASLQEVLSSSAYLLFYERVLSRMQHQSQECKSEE

Compound	IC50
CC(C)c1ccc(/C=C/C(=O)N2CCc3ccccc3C2)cc1	21.7 µM
CCc1ccc2[nH]c3c(c(=O)c2c1)CN(CC(=O)NCc1ccc2c(c1)OCO2)CC3	35.5 µM
CC1(O)CC(=O)c2c(cc3cc(O)cc(O)c3c2O)C1 (centres undefined)	0.182 µM
O=C(CSc1ncnc2c1oc1ccccc12)NC1CCCC1	20.7 µM
CCOC(=O)C1CCN(C(=O)c2ccc3c(c2)NC(=O)C2CCCN32)CC1 (centres undefined)	> 50 µM (inactive)
COc1ccccc1S(=O)(=O)N1CC[C@@H]2CN(C)[C@@H]2C1	32.2 µM
Cn1c(=O)sc2cc(NC(=O)c3ccc(Br)cc3)ccc21	2.21 µM
COc1ccc(C(=O)Nc2cc3c4c(c2)C(C)C(=O)N4CCC3)cc1 (centres undefined)	> 50 µM (inactive)
COC(=O)[C@]1(O)O[C@@]2(C(=O)OC)c3c(oc4cc(C)cc(O)c4c3=O)[C@H]3c4c(oc5cc(C)cc(O)c5c4=O)C[C@H]1[C@H]32	> 50 µM (inactive)
CCCCc1nc2sc3c(SCC(=O)Nc4cccc(C)c4)ncnc3c2c2c1CCC2	> 50 µM (inactive)
COc1ccc(NC(=O)c2nnc(C(=O)NCCN3CCCCCC3)s2)cc1	5.34 µM
Cc1ccc(Cn2nnc(C(=O)NCc3ccco3)c2-n2cccc2)cc1	> 50 µM (inactive)
COC1/C=C/OC2(C)Oc3c(C)c(O)c4c(c3C2=O)C(=O)C=C(NC(=O)/C(C)=C\C=C\C(C)C(O)C(C)C(O)C(C)C(OC(C)=O)C1C)C4=O (centres undefined)	> 50 µM (inactive)
COc1ccc(/C=C/C(=O)N2CCc3ccccc32)cc1S(=O)(=O)N1CCOCC1	> 50 µM (inactive)
O=C(c1nnn(Cc2ccc(Cl)cc2)c1-n1cccc1)N1CCCC1	> 50 µM (inactive)
Cc1nc(C(=O)NC2(O)C(=O)c3ccccc3C2=O)cs1	23.1 µM
O=C(c1ccc2occc2c1)N1CCC(S(=O)(=O)c2ccc(-c3ccco3)cc2)CC1	> 50 µM (inactive)
CCOc1ccc(NS(=O)(=O)c2ccc(NC(=O)Nc3ccccc3)cc2)cc1	17.3 µM
Cc1ccc2nc(NC(=O)CSc3nnc(-c4ccncc4)n3C3CC3)sc2c1	2.81 µM
Cc1cc(O)cc2cc3c(c(O)c12)C(=O)CCC3O (centres undefined)	> 50 µM (inactive)
O=C(Nc1cc(F)c2nc(N3CCOCC3)ccc2c1)C1CC1	> 50 µM (inactive)
O=S(=O)(c1ccccc1)N1CCN2Cc3ccccc3N(Cc3ccccc3)CC2C1 (centres undefined)	> 50 µM (inactive)
CC(=O)N1CCc2cc(CNC(=O)Nc3cc(C)ccc3C)ccc21	> 50 µM (inactive)
Cc1cc(C(=O)CN2CCN(Cc3ccc4c(c3)OCO4)CC2)c(C)n1-c1ccc2c(c1)OCO2	> 50 µM (inactive)

Compound	IC50
C/C1=C/CC(O)/C=C/C(C)C(O)C(C)/C=C(\C)C(=O)c2c(O)c(C)cc3c2C(=O)C(Cl)=C(NC(=O)\C=C/C=C/C=C\C(C)C(O)CC1=O)C3=O (centres undefined)	> 50 µM (inactive)
CC1CCc2c(sc3ncnc(OCc4cccc([N+](=O)[O-])c4)c23)C1 (centres undefined)	> 50 µM (inactive)
O=C(COc1ncnc2ccccc12)Nc1ccc2c(c1)OC1(CCCC1)O2	42.2 µM
COc1c2c(cc3cc(O)c4c(=O)cc(C)oc4c13)CCC2=O	> 50 µM (inactive)
Nc1c(-c2ccc(Cl)cc2)cnc2nc(Sc3ncc(C(F)(F)F)cc3Cl)nn12	> 50 µM (inactive)
Cc1ccc(-n2nc(C(=O)Nc3ccc(C)cn3)c3ncn(C)c(=O)c32)cc1	1.82 µM
Cc1cc(=O)n(C)c2c(O)c3c(cc12)c(C)cc(=O)n3C	> 50 µM (inactive)
COc1ccccc1OCCNC(=O)c1cc(C2CC2)nc2c1cnn2C(C)C	> 50 µM (inactive)
Cc1c(CC(=O)N2CCN(c3ncccn3)CC2)c(=O)oc2cc(O)ccc12	26.3 µM
COc1ccc(NC(=O)CN2CCN(c3ccc(C(C)=O)cc3)CC2)cc1S(=O)(=O)N1CCCCC1	36.4 µM
CCOc1ccc2[nH]c(=O)c(CN(C(=O)c3cccs3)C3CCCC3)cc2c1	10.2 µM
CCCC(=O)c1c[nH]c(C(=O)NCc2ccc(F)cc2)c1	17.4 µM
COc1ccc(OC)c(NC(=O)CS(=O)(=O)c2cn(CC(=O)N3CCC(C)CC3)c3ccccc23)c1	42 µM
O=C(Cn1ncc2c(N3CCCCCC3)ncnc21)NCc1ccccc1	> 50 µM (inactive)
COc1ccc(NC(=O)C2Oc3ccc(C)cc3NC2=O)cc1Cl (centres undefined)	19.5 µM
O=C(CN1CCCCC1)Nc1nnc(-c2ccc([N+](=O)[O-])cc2)s1	22.5 µM
CN(C)S(=O)(=O)c1ccc(C(=O)Nc2c(C#N)oc3ccccc23)cc1	> 50 µM (inactive)
Cc1c(CC(=O)Nc2nn[nH]n2)c(=O)oc2cc3c(cc12)CCC1(CCCCC1)O3	> 50 µM (inactive)
CC(C)c1cc2c(c(O)c1O)[C@@]13CCCC(C)(C)[C@@H]1C[C@@H]2OC3=O	26.6 µM
Cc1cc(C)n(-c2ccc(C(=O)Nc3cccc(S(=O)(=O)N4CCCC4)c3)cc2)n1	9.63 µM
O=C(Nc1ccc(Oc2cccc3cccnc23)cc1)c1cccs1	> 50 µM (inactive)
COc1ccc2c(c1)CCc1c-2n[nH]c1C(=O)Nc1cc(C)on1	4.04 µM
CCC(CC)n1[nH]c(=O)c2c1NC(=O)CSC2c1ccc2c(c1)OCO2 (centres undefined)	16.7 µM

Further lines, results first:

IC50	Compound
> 50 µM (inactive)	COc1ccccc1CNC(=O)c1c(O)c2cnn(-c3cccc(C)c3)c2[nH]c1=O
> 50 µM (inactive)	CC1(C)Cc2c(c(-c3ccco3)nc3sc4c(SCCCc5ccccc5)ncnc4c23)CO1
2.09 µM	Cc1cc(NC(=O)Cn2c(=O)n(CCCCC(=O)NCc3ccco3)c(=O)c3ccccc32)ccc1Br
> 50 µM (inactive)	O=C(Cc1c[nH]c2ccccc12)Nc1nc2ccccc2s1
> 50 µM (inactive)	N#Cc1cccc(NC(=O)Cn2cccc(-c3nc(-c4ccccc4)no3)c2=O)c1
8.88 µM	CCc1ccc(Nc2cc(C(=O)NCCCOC(C)C)c3ccccc3n2)cc1
41.5 µM	CCOc1ccc(N2C(=O)c3ccccc3C2C(=O)NCc2ccccc2OC)cc1 (centres undefined)
> 50 µM (inactive)	COc1ccc(Nc2nc(C(=O)NCc3ccccc3)cc3occc23)cc1
> 50 µM (inactive)	Cc1ccc(Cl)cc1NC(=O)COC(=O)c1ccc2ccccc2n1
32.7 µM	Cc1cc(=O)n(CC(=O)NCc2ccccc2F)c2c1c(C)nn2-c1ccccc1
0.363 µM	COc1cc(NC(=O)c2ccc3c(c2)OCO3)ccc1-c1cc2ccccc2oc1=O
31.8 µM	O=C1c2c(O)cccc2C2(Oc3cccc4cccc(c34)O2)C2OC12 (centres undefined)
27.2 µM	O=C(Nc1oc2ccccc2c(=O)c1-c1ccc2c(c1)OCO2)C1CCCCC1
> 50 µM (inactive)	CC(C)(C)C(=O)Nc1ccc(SCc2nnc(-c3ccccc3)o2)cc1
21.6 µM	O=C(Cc1noc2ccccc12)NCC(=O)Nc1ccc(Cl)cc1
19.4 µM	COc1ccc2c(c1)CCc1c(C(=O)NCc3cccnc3)noc1-2
> 50 µM (inactive)	O=c1ccc(-c2noc(Cc3cccc(Cl)c3)n2)c[nH]1
> 50 µM (inactive)	Cc1ccc2nc(N3CCc4ccccc4C3)c3nncn3c2c1
> 50 µM (inactive)	Cc1ccc(CSC2=NS(=O)(=O)c3ccccc3N2)cc1
5.57 µM	Cc1cccc(CNC(=O)c2ccc(-c3nnc(-c4cccc(C)c4)o3)cc2)c1
> 50 µM (inactive)	COc1ccc(-c2cc(-c3ccc(O)cc3)nc(N)c2C#N)cc1OC
2.29 µM	c1ccc(-c2nc(-c3nnn(-c4ccccc4)c3-c3ccncc3)no2)cc1
2.74 µM	Cc1cccc(NC(=O)Cn2c(=O)n(Cc3ccc(F)cc3)c(=O)c3sccc32)c1
35.6 µM	Nc1nc(OCc2ccccc2)c2[nH]c(/C=C/c3cccs3)nc2n1
38.3 µM	Cc1nc(-c2ccc(C(=O)NCc3ccc(F)cc3)cc2)cs1
> 50 µM (inactive)	Cc1cc(C)c2c(-n3cccc3)c(C(=O)NCCc3ccc(S(N)(=O)=O)cc3)sc2n1

IC50	Compound
14.8 µM	O=C(Nc1ccccc1Br)c1ccn(COc2ccccc2F)n1
> 5 µM (inactive)	COc1ccc(-c2nc(Cn3nnc(C(=O)Nc4ccc(C)cc4C)c3N)c(C)o2)cc1
> 50 µM (inactive)	Cn1c(CCN2CCCC2)nc2cc(NC(=O)c3ccccc3)ccc21
9.57 µM	Cc1nc2ccc(NC(=O)COc3ccccc3[N+](=O)[O-])cc2s1
> 50 µM (inactive)	Cc1ccccc1C(=O)OCCN1C(=O)c2cccc3c(N4CCCCC4)ccc(c23)C1=O
3.15 µM	Cc1ccc(NC(=O)Cc2nnc3c(-c4nc(C5CC5)no4)cccn23)cc1
> 50 µM (inactive)	Cc1cc2nc(/C=C/c3ccccc3)n(Cc3cccc(F)c3)c2cc1C
> 50 µM (inactive)	Cc1nc2ccccn2c1C1(O)C(=O)Nc2c(Cl)cc(Cl)cc21 (centres undefined)
2.18 µM	CCn1cc(-c2nc(-c3ccccc3)no2)c(=O)c2cc(F)ccc21
> 50 µM (inactive)	O=C(Cc1noc2ccccc12)N1CCN(c2ccc([N+](=O)[O-])cc2)CC1
> 50 µM (inactive)	c1ccc2c(Cc3nc(-c4ccncc4)no3)cccc2c1
> 50 µM (inactive)	N#Cc1ccccc1COC(=O)c1ccc2ccccc2n1
23.6 µM	Cc1nn(-c2ccc([N+](=O)[O-])cc2)c(C)c1-c1nc2ccccc2[nH]1
> 50 µM (inactive)	c1ccc2c(c1)CCc1c-2nc2ccccc2c1N1CCOCC1
1.97 µM	O=C(NCc1ccc2c(c1)OCO2)c1[nH]nc2c1COc1ccccc1-2
> 50 µM (inactive)	Cc1nn(C)c2c1[C@@H](c1ccc(F)cc1)[C@H](NC(=O)c1ccccc1)C(=O)N2
> 50 µM (inactive)	Cc1noc(NS(=O)(=O)c2ccc(NC(=O)CSc3ccc4ccccc4c3)cc2)c1C
> 50 µM (inactive)	Cc1ccc(NC(=O)c2c3c(nc4ccccc24)CCCCC3)c(C)c1
14.6 µM	Cn1c(=O)/c(=C/c2ccccc2)[nH]c(=O)/c1=C/c1ccccc1
34.9 µM	Cc1ccn(-c2ccc(NC(=O)c3ccccc3Sc3ccccc3C#N)cc2)n1
0.337 µM	O=C(Nc1ccc(-c2cn3ccccc3n2)cc1)C1C=C2C=C(Br)C=CC2OC1=O (centres undefined)
0.111 µM	Cn1c2ccccc2c(=O)c2c(=O)n(Cc3ccccc3)c(-c3ccccc3F)nc21
31.9 µM	O=C(NCc1ccccc1)Nc1cccc2ccccc12
24.8 µM	Cc1ccc(NC(=O)c2ccn(COc3ccc(F)cc3)n2)nc1
> 5 µM (inactive)	CN(C)CCc1cc2c(c3c1ccc1ccccc13)OCO2
> 50 µM (inactive)	CCn1ccc2c(cc(C(=O)Nc3cccc(OC)c3)n2C)c1=O
